Literature values as cited in patent US20060084141A1, “Biosynthetic gene cluster for the maytansinoid antitumor agent ansamitocin” (priority 2001, published 2006).

How the values were obtained:
[1] = system: human carcinoma and leukemia cell lines; conditions: in vitro
[2] = system: various murine leukemia cell lines; conditions: in vitro
[3] = system: patients with different types of tumors; conditions: phase II trials

## COc1cc2cc(c1Cl)N(C)C(=O)C[C@H](OC(=O)[C@H](C)N(C)C(C)=O)[C@]1(C)O[C@H]1[C@H](C)[C@@H]1C[C@@](O)(NC(=O)O1)[C@H](OC)/C=C/C=C(\C)C2 [Maytansine]
[1]
  dose inhibiting growth: 10^−3 to 10^−7 μg/ml
[2]
  dose inhibiting growth: 10^−3 to 10^−7 μg/ml
Human cancer patients; phase I (early) trials
  tumor response: A few partial responses
Human cancer patients; phase I trials
  dose limiting toxicity: dose limiting gastrointestinal toxicity and neurotoxicity
  myelosuppression: modest levels of mylosuppression
[3]
  response rates: Insignificant response rates
